Tests used:
[1] = HPLC analysis of thiorphan after dissolution in NaOH and neutralisation; format: physicochemical; settings: dissolved in 0.1 N NaOH, neutralized with 0.5 N HCl, diluted with 0.9% saline
Description: (§1) Thiorphan was dissolved in a minimal amount of 0.1 N NaOH to produce the sodium salt. The solution was immediately neutralized using 0.5 N HCl and diluted to a final concentration with 0.9% saline.

[2] = Plasma AP-III levels (radioimmunoassay) in rats, first test: constant AP-III infusion, varied thiorphan dose; format: in vivo, rat; settings: for AP-III Plasma concn. / Increase of plasma AP-III levels over control levels: rat; for AP-III Plasma concn.: AP-III 833 ng/kg/min i.v. infusion; for Increase of plasma AP-III levels over control levels: AP-III 833 ng/kg/min
Description: (§2) Plasma levels of atriopeptin III (AP-III) were tested in rats in which the AP-III was infused intravenously both with and without contemporaneous administration of thiorphan.
(§3) Male Sprague-Dawley rats, 240-310 g, were used for all tests. The rats were housed in the test facilities for at least 6 days before they were used.
(§4) Cannulas were made of PE-10 (polyethylene) tubing inserted and glued into a piece of PE-50 tubing. Rats were anesthetized with pentobarbital (50 mg/kg i.p.) and had cannulas inserted into the left femoral vein and artery. Both were inserted four cm into the vessels and tied securely. They were then tunnelled under the skin and brought out between the rat's shoulder blades and then cut so that only 1-2 cm was externalized. Cannulas were glued in place using Superglue and filled with saline containing 100 units heparin/ml. Rats were allowed to wake up and then housed individually with food and water ad libitum.
(§5) Two days after surgery, the rats were weighed and put into restraining cages that allowed limited movement. […] Blood was collected from the femoral artery and replaced with saline containing 10 units heparin/ml. In most tests, 0.3 ml blood was taken, except that when basal AP-III levels were measured 0.4 ml blood was withdrawn. Blood was immediately centrifuged in a microcentrifuge for one minute and plasma was frozen in plastic tubes placed on dry ice. Samples were kept in a -80° C. freezer until they were analyzed.
as §1
After taking the second sample, thiorphan was given as a bolus injection into the femoral artery and the line was flushed with 0.2 ml saline. The doses of thiorphan were 1,3,10 and 30 mg/kg; one set of rats received only a saline bolus as a control. Blood was taken 10,20,30 and 60 minutes after the injection of thiorphan. AP-III was infused during the entire experiment for a total of 90 minutes.
(§6) Plasma AP-III levels were analyzed by radioimmunoassay using a second antibody to separate free and bound AP-III. The label was ^125 I-AP-III that was purified by HPLC after iodination. Conditions were set so that 35-40% of the total counts were precipitated. The incubation medium contained sodium phosphate, pH 7.4, 0.25% bovine serum albumin (BSA), 0.5% sodium azide and 3% PEG-8000 (polyethylene glycol). The primary antibody was from a guinea pig immunized against AP-III. The incubations were done overnight at 6° C. The next day, 2 ml of 0.125% BSA was added to each tube and then they were centrifuged for 45 min at 3000 rpm. They were decanted and the radioactivity was counted in a Micromedic gamma counter. The standard curve contained 10 to 600 pg AP-III/tube. Only the linear portion of the curve was used for quantification. Plasma samples were diluted so that the AP-III concentrations were in the range of the standard curve.

[3] = Plasma AP-III levels (radioimmunoassay) in rats, second test: varied AP-III infusion rate, constant thiorphan dose; format: in vivo, rat; settings: for Plasma AP-III concn.: thiorphan 3 mg/kg arterial after 30 min sample
Description: as §2, §3, §4, §5, §1
In the second test, the level of thiorphan was kept constant at 3 mg/kg and the rate of AP-III infusion was varied. AP-III was infused into the femoral vein for a total of 60 minutes at a rate of 150,450 and 900 ng/kg/min; another group of rats received only an infusion of dextrose/saline to determine if thiorphan affected the basal levels of AP-III. Blood was taken at 15 and 30 minutes after the start of the AP-III infusion to check for a steady state AP-III plasma concentration. After the 30 min sample, thiorphan (3 mg/kg) was injected arterially and additional blood samples were taken 15 and 30 min later (45 and 60 minutes after the start of the AP-III infusion).
as §6

O=C(O)CNC(=O)C(CS)Cc1ccccc1 (racemic) [thiorphan, N-(DL-2-benzyl-3-mercapto-propionyl)glycine]
Degradation due to method of dissolution (HPLC analysis) [1]: no apparent degradation
AP-III Plasma concn. ([2]; thiorphan 1 mg/kg arterial bolus after 30 min sample, 40 min (10 min after thiorphan)): 23.2 ± 3.1 ng/mL
AP-III Plasma concn. ([2]; thiorphan 1 mg/kg arterial bolus after 30 min sample, 50 min (20 min after thiorphan)): 22.2 ± 3.9 ng/mL
AP-III Plasma concn. ([2]; thiorphan 1 mg/kg arterial bolus after 30 min sample, 60 min (30 min after thiorphan)): 18.7 ± 2.2 ng/mL
AP-III Plasma concn. ([2]; thiorphan 1 mg/kg arterial bolus after 30 min sample, 90 min (60 min after thiorphan)): 15.3 ± 3.9 ng/mL
AP-III Plasma concn. ([2]; thiorphan 3 mg/kg arterial bolus after 30 min sample, 40 min (10 min after thiorphan)): 26.7 ± 3.5 ng/mL
AP-III Plasma concn. ([2]; thiorphan 3 mg/kg arterial bolus after 30 min sample, 50 min (20 min after thiorphan)): 29.5 ± 4.0 ng/mL
AP-III Plasma concn. ([2]; thiorphan 3 mg/kg arterial bolus after 30 min sample, 60 min (30 min after thiorphan)): 28.9 ± 5.6 ng/mL
AP-III Plasma concn. ([2]; thiorphan 3 mg/kg arterial bolus after 30 min sample, 90 min (60 min after thiorphan)): 21.2 ± 3.9 ng/mL
AP-III Plasma concn. ([2]; thiorphan 10 mg/kg arterial bolus after 30 min sample, 40 min (10 min after thiorphan)): 24.7 ± 2.7 ng/mL
AP-III Plasma concn. ([2]; thiorphan 10 mg/kg arterial bolus after 30 min sample, 50 min (20 min after thiorphan)): 29.2 ± 3.1 ng/mL
AP-III Plasma concn. ([2]; thiorphan 10 mg/kg arterial bolus after 30 min sample, 60 min (30 min after thiorphan)): 30.2 ± 4.8 ng/mL
AP-III Plasma concn. ([2]; thiorphan 10 mg/kg arterial bolus after 30 min sample, 90 min (60 min after thiorphan)): 25.5 ± 5.5 ng/mL
AP-III Plasma concn. ([2]; thiorphan 30 mg/kg arterial bolus after 30 min sample, 40 min (10 min after thiorphan)): 22.5 ± 2.7 ng/mL
AP-III Plasma concn. ([2]; thiorphan 30 mg/kg arterial bolus after 30 min sample, 50 min (20 min after thiorphan)): 28.8 ± 5.6 ng/mL
AP-III Plasma concn. ([2]; thiorphan 30 mg/kg arterial bolus after 30 min sample, 60 min (30 min after thiorphan)): 30.7 ± 6.0 ng/mL
AP-III Plasma concn. ([2]; thiorphan 30 mg/kg arterial bolus after 30 min sample, 90 min (60 min after thiorphan)): 31.3 ± 7.8 ng/mL
Increase of plasma AP-III levels over control levels ([2]; later times after thiorphan): 3 fold
Increase of plasma AP-III levels over control levels ([2]; ten minutes after injecting thiorphan): at least 2 fold
Increase of AP-III levels upon intravenous infusion ([2]; rats, thiorphan 1-30 mg/kg of body weight): at least two-fold
Plasma AP-III concentrations vs control, analysis of variance ([2]; thiorphan 1 mg/kg, all but the last time point): statistically different from control levels
Plasma AP-III concentrations vs control, analysis of variance ([2]; thiorphan 3, 10 and 30 mg/kg, all time points after thiorphan): statistically different from control levels
Plasma AP-III concn. ([3]; rat, AP-III 150 ng/kg/min i.v. infusion, 45 min): 2.6 ± 0.8 ng/mL
Plasma AP-III concn. ([3]; rat, AP-III 150 ng/kg/min i.v. infusion, 60 min): 3.3 ± 1.7 ng/mL
Plasma AP-III concn. ([3]; rat, AP-III 450 ng/kg/min i.v. infusion, 45 min): 11.2 ± 3.6 ng/mL
Plasma AP-III concn. ([3]; rat, AP-III 450 ng/kg/min i.v. infusion, 60 min): 12.8 ± 5.8 ng/mL
Plasma AP-III concn. ([3]; rat, AP-III 900 ng/kg/min i.v. infusion, 45 min): 29.8 ± 7.6 ng/mL
Plasma AP-III concn. ([3]; rat, AP-III 900 ng/kg/min i.v. infusion, 60 min): 23.0 ± 6.0 ng/mL
Plasma AP-III concn. ([3]; rat, no AP-III infusion (dextrose/saline only, basal AP-III), 45 min): 0.6 ± 0.3 ng/mL
Plasma AP-III concn. ([3]; rat, no AP-III infusion (dextrose/saline only, basal AP-III), 60 min): 0.5 ± 0.2 ng/mL
Increase of plasma AP-III levels after thiorphan administration ([3]; rat, thiorphan 3 mg/kg given 30 min after start of various AP-III infusion rates): 2-3 fold
Basal levels of AP-III after inhibitor ([3]; rats receiving no exogenous peptide, thiorphan 3 mg/kg): did not increase

Reference: patent US4740499A, “Method of enhancing the bioactivity of atrial peptides” (Monsanto Company, priority 1986, dated 1988)
